The results in this text go back to US20230364069A1, “METHOD FOR TREATING NON-ALCOHOLIC STEATOHEPATITIS THROUGH CO-ADMINISTRATION OF CURCUMIN DERIVATIVE AND TGF-B RECEPTOR INHIBITOR” (UNIVERSITY INDUSTRY FOUNDATION, YONSEI UNIVERSITY WONJU …, priority 2021, published 2023).

Data set [1] relates to AML12 cells (mouse hepatocyte cell lines). Kind of data set: Cytotoxicity of curcumin derivatives (MTT) with TGF-β treatment. The following applies: 2 ng/ml TGF-β; at concentrations other than 0.1 μM (1, 3, 5 μM); FIG. 1. Type of data set: cell-based. How it is done:
Cell experiments were performed by using AML12, […], and LX-2 cells, a human hepatic stellate cell.
AML12 cells were cultured in a culture medium made by adding 5 ml of insulin (ITS), 40 ng/ml of dexamethasone, 1% penicillin streptomycin (anti-anti), and 10% fetal bovine serum (FBS) to F-12 media (Corning Incorporated, USA, Arizona), a mixture of a DMEM medium and Ham's F-12 at a ratio of 50:50, which is used for culturing hepatocytes or prostate epithelial cells.
In order to confirm cytotoxicity, the cells of Example 1-1 were treated with 2 ng/ml of TGF-β, and then with curcumin (CUR), curcumin 5-8 (CURS-8), curcumin 4-8 (CUR4-8), and curcumin 5-14 (CURS-14) at 0.1, 1, 3, and 5 μM, respectively, for the same period of time. Thereafter, cells cultured in an incubator of 5% CO2 at 37° C. were stained with a tetrazolium dye capable of staining surviving cells (MTT), and absorbance was measured by using a spectrophotometer.
By a method described in Example 1-2, the numbers of surviving cells when curcumin (CUR) and curcumin derivatives (CUR5-8, CUR4-8, and CUR5-14) each were co-administered with TGF-β at respective concentrations were measured.

For data set [2], the system named is mouse hepatocyte cell lines (AML12). The data set can be described thus: TGF-β-induced fibrosis, co-administration of curcumin derivative and EW-7197 (epithelial-mesenchymal conversion, BODIPY, α-SMA staining, Western blotting). Particulars: 2 ng/ml TGF-β, 24 hours, 1 μM Cur or Cur5-8, 10 μM EW-7197. It counts as cell-based. The procedure: Fibrosis was induced in hepatocytes with TGF-β, a curcumin derivative and a TGF-β receptor inhibitor were co-administered, and then fibrosis and fat synthesis and degradation were checked.
Specifically, 2 ng/ml of TGF-β was administered to the cells of Example 1-1, the cells were divided into administration groups of vehicle (Veh), 1 μM curcumin (Cur), 1 μM curcumin 5-8 (Cur5-8), 0.5 μM EW-7197 (EW0.5), 10 μM EW-7197 (EW or EW10), 1 μM curcumin and 0.5 μM EW-7197 (EW0.5+Cur), 1 μM curcumin and 10 μM EW-7197 (EW+Cur or EW10+Cur), 1 μM curcumin 5-8 and 0.5 μM EW-7197 (EW0.5+Cur5-8), 1 μM curcumin 5-8 and 10 μM EW-7197 (EW+Cur5-8 or EW10+Cur5-8), respective samples were administered, and culturing was performed for 24 hours. The control group (Con) was not treated with either TGF-β or the sample. […] After washing with PBS 1×, stained cells were observed.
In addition, in order to check the degree of fibrosis of hepatocytes, the cells cultured for 24 hours were fixed with 4% paraformaldehyde and then stained by using α-SMA (Santa Cruz Biotechnology, Inc., Dallas, Texas, USA), an Alexafluor 488 (Cell Signaling Technology, Danvers, Massachusetts, USA) antibody, and DAPI (Abcam plc., Cambridge, MA, USA). The cells were mounted with a mounting solution (Fisher Scientific, Hampton, Rockingham, USA), the manufactured sample was photographed using a confocal microscope to obtain photographs of stained cells, and the degree of color development in the photographs of the stained cells was analyzed with the ImageJ program.
In addition, in order to confirm the degree of fibrosis of hepatocytes, the cells cultured for 24 hours were collected, and protein expressions of α-SMA, Collagen I (Coll), p-SMAD2, and p-SMAD3 were checked by Western blotting with fibrosis markers in the same method as described in <Example 1-3>.
In order to check a synergistic effect of inhibiting fibrosis caused by a TGF-β and inhibiting fat accumulation caused thereby in case of co-administration of a curcumin derivative (Cur5-8) and a TGF-β receptor inhibitor (EW-7197), epithelial-mesenchymal conversion of hepatocytes was confirmed through a cell experiment by the method described in Example 1-5, and BODIPY staining and α-SMA staining were performed. Also, protein expressions of α-SMA, Collagen I p-SMAD2, and p-SMAD3 were checked by Western blotting.

With `COc1cc(C#Cc2cncc(C#Cc3ccc(O)c(OC)c3)c2)ccc1O` [Cur4-8, 4,4′-(3,5-Pyridinediyldi-2,1-ethynediyl)bis(2-methoxyphenol)], the “cytotoxicity (MTT)” value in data set [1] is reported as “cytotoxicity was high”.

Turning to `COc1cc(/C=C/C(=O)CC(=O)/C=C/c2ccc(O)c(OC)c2)ccc1O` [Cur, curcumin], the “epithelial-mesenchymal conversion caused by TGF-β” value in data set [2] (FIG. 8) is recorded as “not inhibited”. Also, the “liver fibrosis (α-SMA staining, fibrosis marker Western blotting)” value in data set [2] (FIGS. 8, 10, 11) was “liver fibrosis was induced”.
